Our source for the EC50 values is patent US20220195066A1, “ANTI-CEA IMMUNOCONJUGATES, AND USES THEREOF” (BOLT BIOTHERAPEUTICS, INC., priority 2020, published 2022).

As a reminder, the EC50 is the concentration at which the effect is half-maximal.

One test concerns the target T1, human TLR7 (Homo sapiens, UniProt Q9NYK1).
T1 construct: host or cells: HEK293 NF-kB reporter cells
T1 sequence (Q9NYK1 27-1049): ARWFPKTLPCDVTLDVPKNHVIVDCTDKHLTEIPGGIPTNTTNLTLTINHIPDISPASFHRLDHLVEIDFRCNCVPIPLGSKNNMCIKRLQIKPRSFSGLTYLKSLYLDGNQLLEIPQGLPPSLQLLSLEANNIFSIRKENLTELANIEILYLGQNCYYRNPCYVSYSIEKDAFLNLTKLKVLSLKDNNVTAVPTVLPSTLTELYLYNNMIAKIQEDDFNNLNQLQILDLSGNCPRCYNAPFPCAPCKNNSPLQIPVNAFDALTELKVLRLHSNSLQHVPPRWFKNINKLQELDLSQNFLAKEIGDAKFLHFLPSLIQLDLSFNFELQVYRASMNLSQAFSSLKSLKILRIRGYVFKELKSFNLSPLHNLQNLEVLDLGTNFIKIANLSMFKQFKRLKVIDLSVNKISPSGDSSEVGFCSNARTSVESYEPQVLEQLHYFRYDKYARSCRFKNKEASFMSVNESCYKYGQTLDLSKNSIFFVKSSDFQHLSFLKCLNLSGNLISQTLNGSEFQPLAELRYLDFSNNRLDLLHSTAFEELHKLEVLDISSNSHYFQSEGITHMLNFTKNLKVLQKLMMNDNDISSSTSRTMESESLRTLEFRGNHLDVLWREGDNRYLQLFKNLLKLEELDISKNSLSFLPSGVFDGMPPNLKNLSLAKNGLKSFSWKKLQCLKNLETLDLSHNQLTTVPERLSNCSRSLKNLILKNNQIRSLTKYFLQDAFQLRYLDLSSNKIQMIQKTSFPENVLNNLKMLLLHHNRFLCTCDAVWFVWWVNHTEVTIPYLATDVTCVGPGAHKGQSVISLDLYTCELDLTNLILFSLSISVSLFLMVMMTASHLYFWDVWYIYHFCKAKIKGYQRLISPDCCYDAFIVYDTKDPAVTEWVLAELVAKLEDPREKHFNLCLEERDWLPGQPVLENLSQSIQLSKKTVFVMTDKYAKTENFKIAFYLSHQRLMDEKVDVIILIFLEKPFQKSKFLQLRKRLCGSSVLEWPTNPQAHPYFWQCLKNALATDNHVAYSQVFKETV
As to the kind of experiment: HEK Reporter Assay, HEK293 NFKB reporter cells expressing human TLR7. The settings on record: read-out: HEK293 hTLR7 EC50. The class given is cell-based. As for the experimental part:
(§1) Each compound was synthesized, purified, and characterized by mass spectrometry and shown to have the mass indicated. Additional experimental procedures are found in the Examples. Activity against Human Embryonic Kidney (HEK) 293 NFKB reporter cells expressing human TLR7 or human TLR8 was measured according to Example 202.
(§2) Human Embryonic Kidney (HEK293) reporter cells expressing human TLR7 or human TLR8 (InvivoGen, San Diego Calif.), were used with vendor protocols for cellular propagation and experimentation. Briefly, cells were grown to 80-85% confluence at 5% CO2 in DMEM supplemented with 10% FBS, ZEOCIN™, and Blasticidin. Cells were then seeded in 96-well flat plates at 4×10^4 cells/well with substrate containing HEK detection medium and immunostimulatory molecules.

In a further test the target is T2, human TLR8 (Homo sapiens, UniProt Q9NR97).
T2 construct: host or cells: HEK293 NF-kB reporter cells
T2 sequence (Q9NR97 27-1041): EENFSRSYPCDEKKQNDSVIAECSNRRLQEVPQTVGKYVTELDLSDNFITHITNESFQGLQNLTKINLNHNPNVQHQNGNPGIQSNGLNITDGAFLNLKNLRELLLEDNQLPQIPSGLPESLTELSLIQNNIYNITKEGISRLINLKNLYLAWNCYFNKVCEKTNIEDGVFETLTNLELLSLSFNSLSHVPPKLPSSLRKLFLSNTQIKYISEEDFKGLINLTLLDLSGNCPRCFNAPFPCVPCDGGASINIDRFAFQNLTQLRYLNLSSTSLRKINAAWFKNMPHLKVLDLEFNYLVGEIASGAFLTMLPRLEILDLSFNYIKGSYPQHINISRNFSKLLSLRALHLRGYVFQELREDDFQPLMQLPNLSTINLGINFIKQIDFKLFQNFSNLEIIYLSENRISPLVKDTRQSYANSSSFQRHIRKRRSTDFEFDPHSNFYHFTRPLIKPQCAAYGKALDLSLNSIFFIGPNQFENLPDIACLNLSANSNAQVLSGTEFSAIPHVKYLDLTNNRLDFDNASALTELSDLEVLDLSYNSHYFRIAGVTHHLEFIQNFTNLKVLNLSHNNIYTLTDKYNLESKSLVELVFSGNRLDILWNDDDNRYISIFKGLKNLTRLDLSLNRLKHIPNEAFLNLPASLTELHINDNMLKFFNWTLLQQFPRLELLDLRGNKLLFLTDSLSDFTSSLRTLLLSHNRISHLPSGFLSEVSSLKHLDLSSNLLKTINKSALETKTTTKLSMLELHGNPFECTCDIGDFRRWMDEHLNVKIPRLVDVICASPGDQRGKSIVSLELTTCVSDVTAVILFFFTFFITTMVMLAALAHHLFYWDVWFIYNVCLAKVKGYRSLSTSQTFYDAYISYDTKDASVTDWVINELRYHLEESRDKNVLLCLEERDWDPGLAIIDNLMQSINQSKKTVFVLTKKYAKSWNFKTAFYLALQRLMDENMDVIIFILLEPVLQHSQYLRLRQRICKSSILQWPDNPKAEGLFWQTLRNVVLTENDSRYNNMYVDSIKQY
Put plainly: HEK Reporter Assay, HEK293 NFKB reporter cells expressing human TLR8. The class given is cell-based. Particulars: read-out: HEK293 hTLR8 EC50. As for the experimental part: as §1, §2

For `CCCN(OCCNC(=O)NC1CCC1)C(=O)C1=Cc2ccc(-c3cnc(CN)nc3)cc2N=C(N)C1` [HxBz-16, 2-amino-8-[2-(aminomethyl)pyrimidin-5-yl]-N-[2-(cyclobutylcarbamoylamino)ethoxy]-N-propyl-3H-1-benzazepine-4-carboxamide], the EC50 at human TLR7 is 4600 nM; on human TLR8, 399 nM.

Turning to `CCCN(OCC)C(=O)C1=Cc2ccc(N3CCNCC3)cc2N=C(N)C1` [HxBz-18], the EC50 at human TLR7 was determined as 6310 nM; on human TLR8, 281 nM.

`CCCN(OCCNC(=O)N(C)C)C(=O)C1=Cc2ccc(-c3cnc(CN)nc3)cc2N=C(N)C1` [HxBz-20]: the half-maximal effective concentration (EC50) was 2940 nM on human TLR7 and 3690 nM at human TLR8.

Take `CCCN(OCCO)C(=O)C1=Cc2ccc(-c3cnc(CN)nc3)cc2N=C(N)C1` [HxBz-22, 2-amino-8-[2-(aminomethyl)pyrimidin-5-yl]-N-(2-hydroxyethoxy)-N-propyl-3H-1-benzazepine-4-carboxamide]: the results for the EC50 at human TLR7 and on human TLR8 were 3920 nM and 1150 nM, respectively.

With `CCCN(OCCNC(=O)N1CCOCC1)C(=O)C1=Cc2ccc(-c3cnc(CN)nc3)cc2N=C(N)C1` [HxBz-23], the results for the EC50 at human TLR7 and on human TLR8 were 6880 nM and 6180 nM, respectively.

As for `CCCN(OCCNC(=O)OC(C)C)C(=O)C1=Cc2ccc(-c3cnc(CN)nc3)cc2N=C(N)C1` [HxBz-27, isopropyl N-[2-[[2-amino-8-[2-(aminomethyl)pyrimidin-5-yl]-3H-1-benzazepine-4-carbonyl]-propyl-amino]oxyethyl]carbamate], the EC50 on human TLR7 came out at 26 nM; at human TLR8, 9 nM.

Turning to `CCCN(OCCNC(=O)NCC)C(=O)C1=Cc2ccc(-c3cnc(CN)nc3)cc2N=C(N)C1` [HxBz-28], the EC50 at human TLR7 amounted to 3770 nM; at human TLR8, 2930 nM.

For the compound `CCCN(CCCNC(=O)OC(C)C)C(=O)C1=Cc2ccc(-c3cnc(CN)nc3)cc2N=C(N)C1` [HxBz-29], the EC50 turned out to be 134 nM on human TLR7 and 296 nM on human TLR8.

With `CCCN(OC(C)C)C(=O)C1=Cc2ccc(-c3cnc(CN)nc3)cc2N=C(N)C1` [HxBz-30], the EC50 at human TLR7 came out at 393 nM; on human TLR8 it was 40 nM.

As to `CCCN(OCC(C)C)C(=O)C1=Cc2ccc(-c3cnc(CN)nc3)cc2N=C(N)C1` [HxBz-31], the values for the EC50 on human TLR7 and on human TLR8 were 763 nM and 358 nM, respectively.

In the case of `CCCN(CCCNC(=O)OC1CCC1)C(=O)C1=Cc2ccc(-c3cncc(S(=O)(=O)N4CC(CN)C4)c3)cc2N=C(N)C1` [HxBz-32, cyclobutyl N-[3-[[2-amino-8-[5-[3-(aminomethyl)azetidin-1-yl]sulfonyl-3-pyridyl]-3H-1-benzazepine-4-carbonyl]-propyl-amino]propyl]carbamate], the values for the EC50 on human TLR7 and at human TLR8 were 1280 nM and 1520 nM, respectively.

With `CCCN(CCCNC(=O)OC(C)C)C(=O)C1=Cc2ccc(-c3cncc(S(=O)(=O)N4CC(CN)C4)c3)cc2N=C(N)C1` [HxBz-33], the EC50 at human TLR7 turned out to be 7630 nM; at human TLR8, 2880 nM.

For the compound `CCCN(OCCNC(=O)OC1CCC1)C(=O)C1=Cc2ccc(-c3cncc(S(=O)(=O)N4CC(CN)C4)c3)cc2N=C(N)C1` [HxBz-34], the values for the EC50 at human TLR7 and on human TLR8 were 322 nM and 79 nM, respectively.

Turning to `CCCN(OCCNC(=O)OC(C)C)C(=O)C1=Cc2ccc(-c3cncc(S(=O)(=O)N4CC(CN)C4)c3)cc2N=C(N)C1` [HxBz-35], the EC50 was 684 nM on human TLR7 and 174 nM at human TLR8.

Consider `CCCN(OCC)C(=O)C1=Cc2ccc(-c3ccc(CN)nc3)cc2N=C(N)C1` [HxBz-36, 2-amino-8-[6-(aminomethyl)-3-pyridyl]-N-ethoxy-N-propyl-3H-1-benzazepine-4-carboxamide], for which the EC50 on human TLR7 came to 439 nM; at human TLR8, 54 nM.

On to `CCCN(CCCNC(=O)OC1CCC1)C(=O)C1=Cc2ccc(-c3ccc(CN)nc3)cc2N=C(N)C1` [HxBz-38], for which the EC50 came out at 56 nM at human TLR7 and 153 nM on human TLR8.

As to `CCCN(OCC)C(=O)C1=Cc2ccc(-c3cncc(CN)c3)cc2N=C(N)C1` [HxBz-39, 2-amino-8-(5-(aminomethyl)pyridin-3-yl)-N-ethoxy-N-propyl-3H-benzo[b]azepine-4-carboxamide], the EC50 at human TLR7 came out at 1780 nM; on human TLR8 it was 65 nM.

As to `CCCN(CCCNC(=O)OC1CCC1)C(=O)C1=Cc2ccc(-c3cncc(CN)c3)cc2N=C(N)C1` [HxBz-40], the concentration for a half-maximal effect (EC50) on human TLR7 was 357 nM; on human TLR8, 755 nM.

`CCCN(OCc1ccn[nH]1)C(=O)C1=Cc2ccc(-c3cnc(CN)nc3)cc2N=C(N)C1` [HxBz-41, 2-amino-8-[2-(aminomethyl)pyrimidin-5-yl]-N-propyl-N-(1H-pyrazol-5-ylmethoxy)-3H-1-benzazepine-4-carboxamide]: the EC50 on human TLR7 turned out to be 3930 nM; at human TLR8, 128 nM.

`CCCN(CCCOC(=O)NC1CCC1)C(=O)C1=Cc2ccc(-c3cnc(CN)nc3)cc2N=C(N)C1` [HxBz-45, 3-[[2-amino-8-[2-(aminomethyl)pyrimidin-5-yl]-3H-1-benzazepine-4-carbonyl]-propyl-amino]propyl N-cyclobutylcarbamate]: the results for the EC50 on human TLR7 and on human TLR8 were 825 nM and 325 nM, respectively.

In the case of `CCCN(OCCNC(=O)OC1CCC1)C(=O)C1=Cc2ccc(-c3ccc(CN)nc3)cc2N=C(N)C1` [HxBz-47], the EC50 on human TLR7 turned out to be 35 nM; at human TLR8, 12 nM.
